Test results as given in US11912693B2, “Compounds for modulating S1P1 activity and methods of using the same” (TREVENA, INC., priority 2017, dated 2024).

Legend:
[1] = target: T1, human sphingosine-1-phosphate receptor 1 (S1P1) (Homo sapiens (Human), UniProt P21453); test: β-Arrestin2 recruitment assay (PathHunter), S1P1 CHO-K1 cells; format: cell-based; details: for Emax: CHO-K1, efficacy (SPAN) normalized to fingolimod, read-out: hS1P1 B-arrestin2 SPAN; for hS1P1 B-arrestin2 pEC50: β-arrestin2 recruitment, S1P1 CHO-K1 cells
In short: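 Enzyme-fragment complementation read-out: agonist-driven β-arrestin2 binding to ProLink-tagged human S1P1 in stable CHO-K1 cells restores β-galactosidase, measured 1 h at room temperature after a 60 min 37° C. compound incubation. Potency as pEC50, efficacy relative to fingolimod (SPAN).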
Target sequence in this assay (P21453 whole entry, looked up, the tested form may be a part): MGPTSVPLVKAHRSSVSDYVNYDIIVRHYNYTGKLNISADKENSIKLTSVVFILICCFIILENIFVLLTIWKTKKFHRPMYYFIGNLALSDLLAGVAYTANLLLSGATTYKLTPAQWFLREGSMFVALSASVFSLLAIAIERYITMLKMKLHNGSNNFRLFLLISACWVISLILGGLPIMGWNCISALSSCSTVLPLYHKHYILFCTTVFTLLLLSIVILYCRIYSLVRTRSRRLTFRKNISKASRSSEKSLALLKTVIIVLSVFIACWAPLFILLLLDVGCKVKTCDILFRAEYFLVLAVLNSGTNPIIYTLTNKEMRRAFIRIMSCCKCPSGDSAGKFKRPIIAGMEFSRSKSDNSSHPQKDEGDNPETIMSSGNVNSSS
Target sequence in this assay (P32121 whole entry partner, looked up, the tested form may be a part): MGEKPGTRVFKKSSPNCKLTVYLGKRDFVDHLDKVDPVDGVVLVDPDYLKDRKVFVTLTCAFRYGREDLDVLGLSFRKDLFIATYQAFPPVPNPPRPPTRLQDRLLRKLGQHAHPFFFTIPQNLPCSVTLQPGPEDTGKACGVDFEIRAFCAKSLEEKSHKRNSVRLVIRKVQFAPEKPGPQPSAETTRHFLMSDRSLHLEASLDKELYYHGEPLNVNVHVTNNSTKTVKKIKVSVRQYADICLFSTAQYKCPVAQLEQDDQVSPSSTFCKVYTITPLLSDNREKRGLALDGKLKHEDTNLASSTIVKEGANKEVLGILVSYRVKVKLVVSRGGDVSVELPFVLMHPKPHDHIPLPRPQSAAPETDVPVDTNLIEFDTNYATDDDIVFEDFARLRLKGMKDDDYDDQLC

[2] = target: T1, human sphingosine-1-phosphate receptor 1 (S1P1); test: Inhibition of cAMP production (HTRF cAMP HiRange), S1P1 CHO-K1 cells; format: cell-based; details: for Emax: CHO-K1, efficacy (SPAN) normalized to fingolimod, read-out: hS1P1 cAMP SPAN; for hS1P1 cAMP pEC50: inhibition of cAMP production, S1P1 CHO-K1 cells
In short: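 CHO-K1 cells stably co-expressing human S1P1 (C-terminal Prolink tag) and EA-β-arrestin2 were grown in AssayComplete Media 6 at 37° C. and 5% CO2, plated, and incubated overnight. Agonist-driven inhibition of intracellular cAMP was read by TR-FRET with the HTRF cAMP HiRange kit on a PheraStar reader. Potency is pEC50, and efficacy (SPAN) is normalized to fingolimod.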
Target sequence in this assay (P21453 whole entry, looked up, the tested form may be a part): as the sequence (P21453 whole entry, looked up, the tested form may be a part) above

| SMILES | Emax [1] | hS1P1 B-arrestin2 pEC50 [1] | Emax [2] | hS1P1 cAMP pEC50 [2] |
| --- | --- | --- | --- | --- |
| CC(C)n1nnc2cc(-c3noc(-c4ccc(F)cc4)n3)ccc21 [Compound 255, 5-(4-fluorophenyl)-3-(1-isopropylbenzotriazol-5-yl)-1,2,4-oxadiazole] | < 75% | <5 | < 75% | <6.5 |
| COc1cccc(F)c1-c1noc(-c2ccc3c(c2)nnn3C(C)C)n1 [Compound 260, 3-(2-fluoro-6-methoxy-phenyl)-5-(1-isopropylbenzotriazol-5-yl)-1,2,4-oxadiazole] | > 75% | <5 | > 75% | <6.5 |
| Cc1ccncc1-c1noc(-c2ccc3nnn(C(C)C)c3c2)n1 [Compound 264, 6-[3-(4-methylpyridin-3-yl)-1,2,4-oxadiazol-5-yl]-1-(propan-2-yl)-1H-1,2,3-benzotriazole] | < 75% | <5 | < 75% | <6.5 |
| COc1cncc(-c2nc(-c3ccc4c(c3)nnn4C(C)C)no2)c1 [Compound 272, 3-(1-isopropyl-1H-benzo[d][1,2,3]triazol-5-yl)-5-(5-methoxypyridin-3-yl)-1,2,4-oxadiazole] | < 75% | <5 | < 75% | <6.5 |
| COc1ccc(-c2nc(-c3ccc4c(c3)nnn4C3CCCC3)no2)cc1OC [Compound 275, 3-(1-cyclopentyl-1H-benzo[d][1,2,3]triazol-5-yl)-5-(3,4-dimethoxyphenyl)-1,2,4-oxadiazole] | < 75% | <5 | < 75% | <6.5 |
| CC(C)n1nnc2cc(-c3noc(-c4ccccc4C#N)n3)ccc21 [Compound 279, 2-(3-(1-isopropyl-1H-benzo[d][1,2,3]triazol-5-yl)-1,2,4-oxadiazol-5-yl)benzonitrile] | > 75% | <5 | > 75% | <6.5 |
| COc1cc(-c2noc(-c3ccc4c(c3)nnn4C3CCCC3)n2)ccn1 [Compound 281, 1-cyclopentyl-5-[3-(2-methoxypyridin-4-yl)-1,2,4-oxadiazol-5-yl]-1H-1,2,3-benzotriazole] | < 75% | <5 | < 75% | <6.5 |
| CC(C)n1nnc2cc(-c3nc(-c4ccccc4Br)no3)ccc21 [Compound 282, 5-[3-(2-bromophenyl)-1,2,4-oxadiazol-5-yl]-1-(propan-2-yl)-1H-1,2,3-benzotriazole] | > 75% | >5 | > 75% | >6.5 |
| Brc1ccccc1-c1nc(-c2ccc3c(c2)nnn3Cc2cccnc2)no1 [Compound 283, 5-(2-bromophenyl)-3-(1-(pyridin-3-ylmethyl)-1H-benzo[d][1,2,3]triazol-5-yl)-1,2,4-oxadiazole] | < 75% | <5 | < 75% | <6.5 |
| COc1ccc(-c2noc(-c3ccc4c(c3)nnn4C3CCCCC3)n2)cc1C(F)(F)F [Compound 284, 1-cyclohexyl-5-{3-[4-methoxy-3-(trifluoromethyl)phenyl]-1,2,4-oxadiazol-5-yl}-1H-1,2,3-benzotriazole] | < 75% | <5 | < 75% | <6.5 |
| c1ccc(Oc2ccc(-c3noc(-c4ccc5c(c4)nnn5C4CC4)n3)cc2)cc1 [Compound 285, 1-cyclopropyl-5-[3-(4-phenoxyphenyl)-1,2,4-oxadiazol-5-yl]-1H-1,2,3-benzotriazole] | < 75% | <5 | < 75% | <6.5 |
| COc1ccccc1-c1noc(-c2ccc3c(c2)nnn3C(C)C)n1 [Compound 286, 5-(1-isopropyl-1H-benzo[d][1,2,3]triazol-5-yl)-3-(2-methoxyphenyl)-1,2,4-oxadiazole] | > 75% | >5 | > 75% | >6.5 |
| Cc1ccccc1-c1noc(-c2ccc3c(c2)nnn3CC2CC2)n1 [Compound 288, 1-(cyclopropylmethyl)-5-[3-(2-methylphenyl)-1,2,4-oxadiazol-5-yl]-1H-1,2,3-benzotriazole] | < 75% | <5 | < 75% | <6.5 |
| CC(C)n1nnc2cc(-c3noc(-c4ccc(C5CCCCC5)cc4)n3)ccc21 [Compound 290, 5-(4-cyclohexylphenyl)-3-(1-isopropyl-1H-benzo[d][1,2,3]triazol-5-yl)-1,2,4-oxadiazole] | < 75% | <5 | < 75% | <6.5 |

More lines, now with the values ahead:

| Emax [1] | hS1P1 B-arrestin2 pEC50 [1] | Emax [2] | hS1P1 cAMP pEC50 [2] | SMILES |
| --- | --- | --- | --- | --- |
| < 75% | <5 | < 75% | >6.5 | CC1(C)CCC2(CC1)CC(=O)c1cc(-c3nc(-c4ccncc4)no3)ccc1O2 [Compound 254, 4′,4′-dimethyl-6-[3-(pyridin-4-yl)-1,2,4-oxadiazol-5-yl]-3,4-dihydrospiro[1-benzopyran-2,1′-cyclohexane]-4-one] |
| > 75% | >5 | > 75% | >6.5 | CCC1(CC)CC(=O)c2cc(-c3nc(-c4ccc(N)cc4)no3)ccc2O1 [Compound 256, 6-(3-(4-aminophenyl)-1,2,4-oxadiazol-5-yl)-2,2-diethylchroman-4-one] |
|  | <5 |  | <6.5 | CCC1(CC)CC(=O)c2cc(-c3nc(-c4ccccc4OC)ns3)ccc2O1 [Compound 257, 2,2-diethyl-6-(3-(2-methoxyphenyl)-1,2,4-thiadiazol-5-yl)chroman-4-one] |
|  | <5 |  | <6.5 | CCC1(CC)CC(=O)c2cc(-c3nc(-c4cccnc4O)no3)ccc2O1 [Compound 258, 2,2-diethyl-6-(3-(2-hydroxypyridin-3-yl)-1,2,4-oxadiazol-5-yl)chroman-4-one] |
|  | >5 |  | <6.5 | CCC1(CC)CC(=O)c2cc(-c3nc(-c4cccc(Cl)c4)no3)ccc2O1 [Compound 261, 6-[3-(3-chlorophenyl)-1,2,4-oxadiazol-5-yl]-2,2-diethyl-chroman-4-one] |
| < 75% | >5 | > 75% | >6.5 | CCC1(CC)CC(=O)c2cc(-c3nc(-c4sccc4C)no3)ccc2O1 [Compound 265, 2,2-diethyl-6-(3-(3-methylthiophen-2-yl)-1,2,4-oxadiazol-5-yl)chroman-4-one] |
|  | >5 |  | <6.5 | CCC1(CC)CC(=O)c2cc(-c3nc(-c4ccc(S(=O)(=O)NC)cc4)no3)ccc2O1 [Compound 266, 4-(5-(2,2-diethyl-4-oxochroman-6-yl)-1,2,4-oxadiazol-3-yl)-N-methylbenzenesulfonamide] |
|  | >5 |  | >6.5 | CCC1(CC)CC(=O)c2cc(-c3nc(-c4ccccc4OC)no3)ccc2O1 [Compound 268, 2,2-diethyl-6-[3-(2-methoxyphenyl)-1,2,4-oxadiazol-5-yl]chroman-4-one] |
| < 75% | <5 | < 75% | <6.5 | CCC1(CC)CC(=O)c2cc(-c3nc(-c4ccc(C)cc4)no3)ccc2O1 [Compound 269, 2,2-diethyl-6-[3-(p-tolyl)-1,2,4-oxadiazol-5-yl]chroman-4-one] |
|  | <5 |  | <6.5 | C=CCn1nnc2cc(-c3nc(-c4ccccc4)no3)ccc21 [Compound 270, 5-(3-phenyl-1,2,4-oxadiazol-5-yl)-1-(prop-2-en-1-yl)-1H-1,2,3-benzotriazole] |
| < 75% | <5 | < 75% | <6.5 | CC(C)CCn1nnc2cc(-c3nc(-c4ccccc4)no3)ccc21 [Compound 271, 1-(3-methylbutyl)-5-(3-phenyl-1,2,4-oxadiazol-5-yl)-1H-1,2,3-benzotriazole] |
|  | <5 |  | <6.5 | Cc1cccc(-c2nc(-c3ccc4c(c3)nnn4C3CCCC3)no2)c1 [Compound 273, 3-(1-cyclopentyl-1H-benzo[d][1,2,3]triazol-5-yl)-5-(m-tolyl)-1,2,4-oxadiazole] |
| < 75% | >5 | > 75% | <6.5 | CC1(C)CC(=O)c2cc(-c3nc(-c4cccnc4)no3)ccc2O1 [Compound 274, 2,2-dimethyl-6-[3-(pyridin-3-yl)-1,2,4-oxadiazol-5-yl]-3,4-dihydro-2H-1-benzopyran-4-one] |
| < 75% | <5 | < 75% | <6.5 | O=C1CC2(CCCCC2)Oc2ccc(-c3nc(-c4ccncc4)no3)cc21 [Compound 280, 6-[3-(pyridin-4-yl)-1,2,4-oxadiazol-5-yl]-3,4-dihydrospiro[1-benzopyran-2,1′-cyclohexane]-4-one] |
|  | <5 |  | <6.5 | CC(C)Cn1nnc2cc(-c3nc(-c4ccccc4Cl)no3)ccc21 [Compound 289, 5-[3-(2-chlorophenyl)-1,2,4-oxadiazol-5-yl]-1-(2-methylpropyl)-1H-1,2,3-benzotriazole] |
